Data taken from US8344145B2, “Salts of 2-substituted quinolines” (priority 2008, dated 2013).
Read-outs that look alike come from different tables or passages of the source.

Tests used:
[1] = Hygroscopicity: water vapour sorption/desorption isotherm (DVS-1000); format: physicochemical; settings: 25° C./60% relative humidity, in comparison with weight equilibrated at 0% relative humidity at 25° C.
Protocol: The hygroscopicity of the 2-(n-propyl)quinoline camsylate crystals is evaluated by studying the sorption/desorption isotherm of water in the vapor phase on a device of DVS-1000 type sold by SMS.
The sample, analyzed in a quartz pan with a specimen size of the order of 10 mg, is subjected to two cycles of variation in relative humidity (RH) which are linked together continuously. Each cycle comprises two stages, adsorption and then desorption of water, during which the relative humidity in the measuring chamber is increased and then decreased gradually according to the conditions described in table 2.
The sample is first dried under a stream of filtered dry air until its weight has stabilized. The stages of adsorption and of desorption are then made successively. The carrier gas used to maintain the relative humidity at a set percentage is air dried upstream of the device and delivered at a flow rate of 100 ml/min. During the progression of the program, the temperature in the measuring chamber is maintained at 25° C.

[2] = test system: female CD-1 mice; settings: 5 animals
Protocol: (§1) 250 mg of carboxymethylcellulose are dissolved in 50 ml of a 5% glucose solution. 5 ml aliquots containing 0.5% of Tween 80 are emulsified with the quinoline salts (final concentrations at 0.4 mg/ml, 4 mg/ml and 40 mg/ml). The emulsions are subsequently homogenized. The emulsions are administered by force feeding in a single dose to four groups of five female CD-1 mice at the concentrations of 10 mg/kg, 100 mg/kg and 1000 mg/kg and without compounds (control group). The control group receives a glucose-comprising emulsion containing 0.5% of carboxymethyl-cellulose (CMC) and […]. The behavior of the animals is observed and the number of deaths is counted after 1 min, 15 min, 30 min, 1 h, 4 h, 8 h and each day for 14 days. On the final day, a blood sample is taken. Biochemical analyses are carried out in order to evaluate the nephrotoxicity and the hepatotoxicity, the levels of creatinine, of aspartate aminotransferase (ASAT), of alanine aminotransferase (ALAI) and of cholesterol being quantitatively determined.

[3] = test system: female CD-1 mice; assay: Acute toxicity: blood biochemical parameters on the final day (nephrotoxicity, hepatotoxicity); settings: blood sample on final day (day 14)
Protocol: as §1

[4] = Chemical stability of solutions in five solvents, HPLC daily for 9 days; settings: 200 μg/ml in methanol, pH 7 buffer, camphorsulfonic acid pH 2, DMSO, CMC 0.5%/Tween 80 0.5%, 4° C., ambient with light, ambient without light
Protocol: The quinoline salts are dissolved at a concentration of 200 μg/ml in five different solvents: methanol, an aqueous solution buffered at pH 7, an aqueous camphorsulfonic acid solution at pH 2, dimethyl sulfoxide (DMSO) and an aqueous solution comprising a mixture of carboxymethylcellulose at 0.5% and Tween 80 at 0.5%.
Each preparation is divided into three parts which are stored under different conditions of temperature and of luminosity: at 4° C., at ambient temperature under the influence of light and at ambient temperature with the exclusion of light. The samples are diluted (1:20) and then analyzed by high performance liquid chromotography (HPLC) daily for 9 days.
Use was made, in carrying out the high performance liquid chromotography analysis, of a Waters LC system comprising a model 600 pump with inline degassing and, as detector, a 996 photodiode detector device. The acquisition of the data was carried out by the use of the Empower® program (Waters, France). The column used was a Symmetry Shield RP18, 3.5 μm 4.6×150 mm. […] The UV absorbance spectra were recorded at between 210 and 400 nm. The chromatogram of the propyl salt was recorded at 233 nm and that of the alcohol derivative at 249 nm.

Question: With `CC1(C)C2CCC1(CS(=O)(=O)O)C(=O)C2.CCCc1ccc2ccccc2n1` (centres unmarked) [Camphorsulfonate salt of 2-(n-propyl)quinoline] as the molecule, how does the “increase in weight (water sorption)” value [1] read?
Answer: less than 2%

Question: What about the acute toxicity observation ([2]; single dose 10 mg/kg oral route) of the same molecule?
Answer: absence of toxicity

Question: And the acute toxicity observation ([2]; single dose 100 mg/kg oral route)?
Answer: absence of toxicity

Question: And the “mice showing signs of lethargy” value ([2]; single dose 1 g/kg oral route, t15 min)?
Answer: t15 min = 3 mice showed

Question: What about the lethargic mice ([2]; single dose 1 g/kg oral route, t1 h) of the same molecule?
Answer: t1 h = 2 lethargic mice

Question: And the acute toxicity observation ([2]; single dose 1 g/kg oral route, t4 h)?
Answer: t4 h = absence of toxicity

Question: And the ALAT ([3]; dose 10 mg/kg oral)?
Answer: 215 ± 123 IU/l

Question: What about the ASAT ([3]; dose 10 mg/kg oral) of the same molecule?
Answer: 410 ± 57 IU/l

Question: What about the Cholesterol ([3]; dose 10 mg/kg oral) of the same molecule?
Answer: 3.9 ± 0.3 mM

Question: What about the Creatinine ([3]; dose 10 mg/kg oral) of the same molecule?
Answer: <18 µM

Question: What about the ALAT ([3]; dose 100 mg/kg oral) of the same molecule?
Answer: 168 ± 67 IU/l

Question: What about the ASAT ([3]; dose 100 mg/kg oral) of the same molecule?
Answer: 515 ± 72 IU/l

Question: What about the Cholesterol ([3]; dose 100 mg/kg oral) of the same molecule?
Answer: 4.1 ± 0.5 mM

Question: What about the Creatinine ([3]; dose 100 mg/kg oral) of the same molecule?
Answer: <18 µM

Question: And the ALAT ([3]; dose 1 g/kg oral)?
Answer: 199 ± 89 IU/l

Question: And the ASAT ([3]; dose 1 g/kg oral)?
Answer: 422 ± 187 IU/l

Question: What about the Cholesterol ([3]; dose 1 g/kg oral) of the same molecule?
Answer: 3.8 ± 0.4 mM

Question: What about the Creatinine ([3]; dose 1 g/kg oral) of the same molecule?
Answer: <18 µM

Question: And the “chemical stability in solution” value ([4]; listed as 2-(n-propyl)quinoline in the form of the camphorsulfonic acid salt)?
Answer: chemical stability compatible with the development of a medicament

Question: What about the “chemical stability in solution” value ([4]; listed as propyl salt) of the same molecule?
Answer: stable whatever the conditions tested
